Laboratory results as given in ChEMBL document CHEMBL3885881, “DrugMatrix”.

Species on record: Rattus norvegicus
Assay: DrugMatrix - Regimen: Daily Repeat
Format: toxicity, organism-based, Sprague-Dawley
Set-up: regimen Daily Repeat, gender Male, age 6-8 weeks
Details: in vivo, po, 0 mg/kg, route oral GAVAGE, dose level Control, vehicle .5 % CMC; for ABSOLUTE BASOPHIL / ABSOLUTE EOSINOPHIL / ABSOLUTE LYMPHOCYTE / ABSOLUTE MONOCYTE / ABSOLUTE SEGMENTED NEUTROPHIL / BASOPHIL / EOSINOPHIL / ERYTHROCYTE COUNT / HEMATOCRIT / HEMOGLOBIN / LEUKOCYTE COUNT / LYMPHOCYTE / MEAN CORPUSCULAR HEMOGLOBIN / MEAN CORPUSCULAR HEMOGLOBIN CONCENTRATION / MEAN CORPUSCULAR VOLUME / MONOCYTE / NEUTROPHIL / NUCLEATED RED BLOOD CELLS / PLATELET COUNT: tissue Blood; for ALANINE AMINOTRANSFERASE / ALBUMIN / ALKALINE PHOSPHATASE / ASPARTATE AMINOTRANSFERASE / BLOOD UREA NITROGEN / CARBON DIOXIDE / CHLORIDE / CHOLESTEROL / CREATINE PHOSPHOKINASE / CREATININE / GLUCOSE / LACTATE DEHYDROGENASE / LIPASE / PHOSPHORUS / POTASSIUM / SODIUM / TOTAL BILIRUBIN / TOTAL PROTEIN / URIC ACID: tissue Plasma

C[C@@H]1O[C@@H](O[C@H]2C[C@@H](O)[C@]3(CO)[C@H]4[C@H](O)C[C@]5(C)[C@@H](C6=CC(=O)OC6)CC[C@]5(O)[C@@H]4CC[C@]3(O)C2)[C@H](O)[C@H](O)[C@H]1O [OUABAIN]
ABSOLUTE BASOPHIL (72 h, time 3 day): 0 CELLS/uL
ABSOLUTE EOSINOPHIL (72 h, time 3 day): 130.33 CELLS/uL
ABSOLUTE LYMPHOCYTE (72 h, time 3 day): 10030.67 CELLS/uL
ABSOLUTE MONOCYTE (72 h, time 3 day): 41 CELLS/uL
ABSOLUTE SEGMENTED NEUTROPHIL (72 h, time 3 day): 1298 CELLS/uL
BASOPHIL (72 h, time 3 day): 0%
EOSINOPHIL (72 h, time 3 day): 1%
ERYTHROCYTE COUNT (72 h, time 3 day): 5.22 x10E6/uL
HEMATOCRIT (72 h, time 3 day): 33.53%
HEMOGLOBIN (72 h, time 3 day): 12.73 G/DL
LEUKOCYTE COUNT (72 h, time 3 day): 11.5 x10E3/uL
LYMPHOCYTE (72 h, time 3 day): 87.67%
MEAN CORPUSCULAR HEMOGLOBIN (72 h, time 3 day): 24.45 pg
MEAN CORPUSCULAR HEMOGLOBIN CONCENTRATION (72 h, time 3 day): 37.97 G/DL
MEAN CORPUSCULAR VOLUME (72 h, time 3 day): 64.33 fL
MONOCYTE (72 h, time 3 day): 0.33%
NEUTROPHIL (72 h, time 3 day): 11%
NUCLEATED RED BLOOD CELLS (72 h, time 3 day): 0 /100WBC
PLATELET COUNT (72 h, time 3 day): 1310.5 x10E3/uL
ALANINE AMINOTRANSFERASE (72 h, time 3 day): 52 u/L
ALBUMIN (72 h, time 3 day): 4.22 G/DL
ALKALINE PHOSPHATASE (72 h, time 3 day): 340.17 u/L
ASPARTATE AMINOTRANSFERASE (72 h, time 3 day): 87.5 u/L
BLOOD UREA NITROGEN (72 h, time 3 day): 15.17 mg/dL
CARBON DIOXIDE (72 h, time 3 day): 25.5 mmol/L
CHLORIDE (72 h, time 3 day): 101.83 MEQ/L
CHOLESTEROL (72 h, time 3 day): 68.17 mg/dL
CREATINE PHOSPHOKINASE (72 h, time 3 day): 379.67 u/L
CREATININE (72 h, time 3 day): 0.17 mg/dL
GLUCOSE (72 h, time 3 day): 181.67 mg/dL
LACTATE DEHYDROGENASE (72 h, time 3 day): 256.17 u/L
LIPASE (72 h, time 3 day): 8 u/L
PHOSPHORUS (72 h, time 3 day): 12.1 mg/dL
POTASSIUM (72 h, time 3 day): 5.88 MEQ/L
SODIUM (72 h, time 3 day): 143.67 MEQ/L
TOTAL BILIRUBIN (72 h, time 3 day): 0.18 mg/dL
TOTAL PROTEIN (72 h, time 3 day): 5.92 G/DL
URIC ACID (72 h, time 3 day): 1.7 mg/dL
ABSOLUTE BASOPHIL (120 h, time 5 day): 0 CELLS/uL
ABSOLUTE EOSINOPHIL (120 h, time 5 day): 31 CELLS/uL
ABSOLUTE LYMPHOCYTE (120 h, time 5 day): 9599.17 CELLS/uL
ABSOLUTE MONOCYTE (120 h, time 5 day): 52.83 CELLS/uL
ABSOLUTE SEGMENTED NEUTROPHIL (120 h, time 5 day): 1050.33 CELLS/uL
BASOPHIL (120 h, time 5 day): 0%
EOSINOPHIL (120 h, time 5 day): 0.33%
ERYTHROCYTE COUNT (120 h, time 5 day): 5.53 x10E6/uL
HEMATOCRIT (120 h, time 5 day): 35.8%
HEMOGLOBIN (120 h, time 5 day): 13.53 G/DL
LEUKOCYTE COUNT (120 h, time 5 day): 10.73 x10E3/uL
LYMPHOCYTE (120 h, time 5 day): 89%
MEAN CORPUSCULAR HEMOGLOBIN (120 h, time 5 day): 24.47 pg
MEAN CORPUSCULAR HEMOGLOBIN CONCENTRATION (120 h, time 5 day): 37.82 G/DL
MEAN CORPUSCULAR VOLUME (120 h, time 5 day): 64.7 fL
MONOCYTE (120 h, time 5 day): 0.5%
NEUTROPHIL (120 h, time 5 day): 10.17%
NUCLEATED RED BLOOD CELLS (120 h, time 5 day): 0 /100WBC
PLATELET COUNT (120 h, time 5 day): 1028.5 x10E3/uL
ALANINE AMINOTRANSFERASE (120 h, time 5 day): 45.33 u/L
ALBUMIN (120 h, time 5 day): 4.33 G/DL
ALKALINE PHOSPHATASE (120 h, time 5 day): 351.83 u/L
ASPARTATE AMINOTRANSFERASE (120 h, time 5 day): 73.5 u/L
BLOOD UREA NITROGEN (120 h, time 5 day): 17.83 mg/dL
CARBON DIOXIDE (120 h, time 5 day): 24.67 mmol/L
CHLORIDE (120 h, time 5 day): 100 MEQ/L
CHOLESTEROL (120 h, time 5 day): 67 mg/dL
CREATINE PHOSPHOKINASE (120 h, time 5 day): 284 u/L
CREATININE (120 h, time 5 day): 0.2 mg/dL
GLUCOSE (120 h, time 5 day): 152.33 mg/dL
LACTATE DEHYDROGENASE (120 h, time 5 day): 108.67 u/L
LIPASE (120 h, time 5 day): 8.17 u/L
PHOSPHORUS (120 h, time 5 day): 11.17 mg/dL
POTASSIUM (120 h, time 5 day): 6.14 MEQ/L
SODIUM (120 h, time 5 day): 144.68 MEQ/L
TOTAL BILIRUBIN (120 h, time 5 day): 0.22 mg/dL
TOTAL PROTEIN (120 h, time 5 day): 6.08 G/DL
URIC ACID (120 h, time 5 day): 1.27 mg/dL
